In US5604219A, “Indolocarbazole derivatives that stimulate platelet production” (Kyowa Hakko Kogyo Co., Ltd., priority 1994, dated 1997):

Tests used:
[1] = system: bone marrow cells (megakaryocyte colony formation); experiment: Megakaryocyte colony formation-stimulating activity (Test Example 1); assay type: cell-based, BALB/c mouse; settings: with IL-3 (100 U/ml), 7 days, control (IL-3 alone) defined as 100
Description: An eight-weeks-old BALB/c mouse was killed. Its femurs and cervical vertebrae were taken out, and both end sections thereof were cut off. Bone marrow cells were collected from the pieces cut off from the femurs and cervical vertebrae using a syringe containing IMDM (430-2200EA prepared by Gibco Co.), and then blown into a test tube. The test tube was allowed to stand for 5 minutes, and the supernatant was collected with a piper. To a reaction mixture comprising the bone marrow cells (50,000 cells), bovine serum albumin (2%: A4508 made by Sigma Co.), transferrin (600 μg/ml: 652202 made by Boehringer Mannheim Co.), IL-3 (100 U/ml), cholesterol (16 μg/ml: 036-0641 made by Wako Co.) and agar (0.6%: 0142-02 made by Difco Laboratories) were separately added the test compounds at various concentrations, and 1 ml each of the mixtures was put into a 35-mm dish (Lux Co.), followed by incubation under the conditions of 37° C. 5% CO2 and a humidity of 95% or more for 7 days. Separately, IL-3 alone was added to the bone marrow cells to prepare a control. After the incubation was completed, the agar was dried over a filter paper (1001-055 made by Whatman Co.) and then fixed with 2.5% glutaraldehyde, followed by acetylcholinesterase staining (ACHE staining).
The ACHE staining was carried out by the method described below.
ACHE staining: To each sample was added a solution comprising 0.67 mg/ml acetylthiocholine iodide, 2.94 mg/ml sodium citrate, 7.5 mg/ml copper (II) sulfate and 1.65 mg/ml potassium ferricyanide, and the mixture was allowed to stand at room temperature in the dark for 4-6 hours.
A group of 4 or more megakaryocytes which were stained reddish brown was regarded as a colony, and the number of colonies per dish was calculated using a microscope. The results are shown in Table 2 as relative values to the control.

[2] = system: platelets; experiment: Platelet production-stimulating activity in mice (Test Example 2); assay type: in vivo, male BALB/c mice; settings: intraperitoneal, once a day for 5 days, platelets counted on day 15, A test group, B control group
Text: A test compound was intraperitoneally administered to four 7-week-old male BALB/c mice per group once a day for consecutive 5 days (day 1 to day 5). A control group (4 mice per group) received only the solvent (5% Tween water). The blood was collected from the fundus oculi vein of each animal on the 15th day from the start of administration (day 15), and the number of the platelets was counted with a microcell counter (Model CC-180A, manufactured by Toa Iryo Denshi Co.). The rate of increase of the number of platelets in the test group (average) over the control (average) was calculated according to the following formula to evaluate the effect of the test compound.
Rate of Increase = A/B × 100
A: the number of platelets in test group
B: the number of platelets in control group

CN[C@@H]1C[C@H]2O[C@@](C)([C@@H]1OC)n1c3ccccc3c3c4c(c5c6cc(C=NN(C)C)ccc6n2c5c31)C(=O)N(C)C4 [Compound 28]
Rel. Value (number of megakaryocyte colonies per dish, relative to control) ([1]; Concn. 1 nM): 134 | Rate of increase (number of platelets, A/B × 100) ([2]; 12.5 mg/kg): 156%

CN[C@@H]1C[C@H]2O[C@@](C)([C@@H]1OC)n1c3ccccc3c3c4c(c5c6cc(N)ccc6n2c5c31)C(=O)N(C)C4 [Compound 12]
Rel. Value (number of megakaryocyte colonies per dish, relative to control) ([1]; Concn. 10 nM): 126

CN[C@@H]1C[C@H]2O[C@@](C)([C@@H]1OC)n1c3ccccc3c3c4c(c5c6cc(CSCCN(C)C)ccc6n2c5c31)C(=O)N(C)C4 [Compound 30]
Rel. Value (number of megakaryocyte colonies per dish, relative to control) ([1]; Concn. 1 nM): 116

CN[C@@H]1C[C@H]2O[C@@](C)([C@@H]1OC)n1c3ccccc3c3c4c(c5c6cc(C)ccc6n2c5c31)C(=O)N(C)C4 [Compound 8]
Rel. Value (number of megakaryocyte colonies per dish, relative to control) ([1]; Concn. 10 nM): 157 | Rate of increase (number of platelets, A/B × 100) ([2]; 25 mg/kg): 134%

CN[C@@H]1C[C@H]2O[C@@](C)([C@@H]1OC)n1c3ccc(N)cc3c3c4c(c5c6cc(N)ccc6n2c5c31)C(=O)N(C)C4 [Compound 16]
Rel. Value (number of megakaryocyte colonies per dish, relative to control) ([1]; Concn. 1 nM): 125

CN[C@@H]1C[C@H]2O[C@@](C)([C@@H]1OC)n1c3ccc(OC(=O)C(C)(C)C)cc3c3c4c(c5c6cc(OC(=O)C(C)(C)C)ccc6n2c5c31)C(=O)N(C)C4 [Compound 22]
Rate of increase (number of platelets, A/B × 100) ([2]; 50 mg/kg): 168%

CN[C@@H]1C[C@H]2O[C@@](C)([C@@H]1OC)n1c3ccccc3c3c4c(c5c6ccccc6n2c5c31)C(=O)N(CO)C4 [Compound 1]
Rel. Value (number of megakaryocyte colonies per dish, relative to control) ([1]; Concn. 1 nM): 129
